# Tested on: HIV NL4-3 wt
# Test: MT4 antiviral assay, NL4-3 strain wild type
# Assay type: cell-based, HIV-1
# Conditions: Human immunodeficiency virus 1, NL43; MT4 cells; read-out: EC50 NL4-3 wt
row,SMILES,EC50
1,"CC(C)C1=C2[C@H]3CC[C@@H]4[C@@]5(C)CC[C@H](OC(=O)CC(C)(C)CC(=O)O)C(C)(C)[C@@H]5CC[C@@]4(C)[C@]3(C)CC[C@@]2([C@H](O)CN(CCN(C)C)Cc2ccc(Cl)cc2)CC1=O [Example 23, 5-(((3aR,5aR,5bR,7aR,9S,11aR,11bR,13aS)-3a-((S)-2-((4-Chlorobenzyl)(2-(dimethylamino)ethyl)amino)-1-hydroxyethyl)-1-isopropyl-5a,5b,8,8,11a-pentamethyl-2-oxo-3,3a,4,5,5a,5b,6,7,7a,8,9,10,11,11a,11b,12,13,13a-octadecahydro-2H-cyclopenta[a]chrysen-9-yl)oxy)-3,3-dimethyl-5-oxopentanoic acid]",4.9 nM
2,"CC(C)C1=C2[C@H]3CC[C@@H]4[C@@]5(C)CC[C@H](OC(=O)CC(C)(C)C(=O)O)C(C)(C)[C@@H]5CC[C@@]4(C)[C@]3(C)CC[C@@]2([C@H](O)CNCc2ccccc2Cl)CC1=O [Example 24, 4-(((3aR,5aR,5bR,7aR,9S,11aR,11bR,13aS)-3a-((S)-2-((2-Chlorobenzyl)amino)-1-hydroxyethyl)-1-isopropyl-5a,5b,8,8,11a-pentamethyl-2-oxo-3,3a,4,5,5a,5b,6,7,7a,8,9,10,11,11a,11b,12,13,13a-octadecahydro-2H-cyclopenta[a]chrysen-9-yl)oxy)-2,2-dimethyl-4-oxobutanoic acid]",40.4 nM
3,"CC(C)C1=C2[C@H]3CC[C@@H]4[C@@]5(C)CC[C@H](OC(=O)CC(C)(C)C(=O)O)C(C)(C)[C@@H]5CC[C@@]4(C)[C@]3(C)CC[C@@]2([C@@H](O)CNCc2ccccc2Cl)CC1=O [Example 25, 4-(((3aR,5aR,5bR,7aR,9S,11aR,11bR,13aS)-3a-((R)-2-((2-chlorobenzyl)amino)-1-hydroxyethyl)-1-isopropyl-5a,5b,8,8,11a-pentamethyl-2-oxo-3,3a,4,5,5a,5b,6,7,7a,8,9,10,11,11a,11b,12,13,13a-octadecahydro-2H-cyclopenta[a]chrysen-9-yl)oxy)-2,2-dimethyl-4-oxobutanoic acid]",14.7 nM
4,"CC(=O)O[C@H](CNCc1ccc(F)cc1)[C@@]12CC[C@]3(C)[C@H](CC[C@@H]4[C@@]5(C)CC[C@H](OC(=O)CC(C)(C)C(=O)O)C(C)(C)[C@@H]5CC[C@]43C)C1=C(C(C)C)C(=O)C2 [Example 26, 4-(((3aR,5aR,5bR,7aR,9S,11aR,11bR,13aS)-3a-((S)-1-Acetoxy-2-((4-fluorobenzyl)amino)ethyl)-1-isopropyl-5a,5b,8,8,11a-pentamethyl-2-oxo-3,3a,4,5,5a,5b,6,7,7a,8,9,10,11,11a,11b,12,13,13a-octadecahydro-2H-cyclopenta[a]chrysen-9-yl)oxy)-2,2-dimethyl-4-oxobutanoic acid]",4.9 nM
5,"CC(=O)O[C@@H](CNCc1ccc(F)cc1)[C@@]12CC[C@]3(C)[C@H](CC[C@@H]4[C@@]5(C)CC[C@H](OC(=O)CC(C)(C)C(=O)O)C(C)(C)[C@@H]5CC[C@]43C)C1=C(C(C)C)C(=O)C2 [Example 27, 4-(((3aR,5aR,5bR,7aR,9S,11aR,11bR,13aS)-3a-((R)-1-acetoxy-2-((4-fluorobenzyl)amino)ethyl)-1-isopropyl-5a,5b,8,8,11a-pentamethyl-2-oxo-3,3a,4,5,5a,5b,6,7,7a,8,9,10,11,11a,11b,12,13,13a-octadecahydro-2H-cyclopenta[a]chrysen-9-yl)oxy)-2,2-dimethyl-4-oxobutanoic acid]",8.2 nM
6,"CC(C)C1=C2[C@H]3CC[C@@H]4[C@@]5(C)CC[C@H](OC(=O)CC(C)(C)C(=O)O)C(C)(C)[C@@H]5CC[C@@]4(C)[C@]3(C)CC[C@@]2([C@H](O)CN(C)Cc2ccc(Cl)cc2)CC1=O [Example 29, 4-(((3aR,5aR,5bR,7aR,9S,11aR,11bR,13aS)-3a-((S)-2-((4-Chlorobenzyl)(methyl)amino)-1-hydroxyethyl)-1-isopropyl-5a,5b,8,8,11a-pentamethyl-2-oxo-3,3a,4,5,5a,5b,6,7,7a,8,9,10,11,11a,11b,12,13,13a-octadecahydro-2H-cyclopenta[a]chrysen-9-yl)oxy)-2,2-dimethyl-4-oxobutanoic acid]",17.5 nM
7,"CC(C)C1=C2[C@H]3CC[C@@H]4[C@@]5(C)CC[C@H](OC(=O)CC(C)(C)C(=O)O)C(C)(C)[C@@H]5CC[C@@]4(C)[C@]3(C)CC[C@@]2([C@@H](O)CN(C)Cc2ccc(Cl)cc2)CC1=O [Example 31, 4-(((3aR,5aR,5bR,7aR,9S,11aR,11bR,13aS)-3a-((R)-2-((4-Chlorobenzyl)(methyl)amino)-1-hydroxyethyl)-1-isopropyl-5a,5b,8,8,11a-pentamethyl-2-oxo-3,3a,4,5,5a,5b,6,7,7a,8,9,10,11,11a,11b,12,13,13a-octadecahydro-2H-cyclopenta[a]chrysen-9-yl)oxy)-2,2-dimethyl-4-oxobutanoic acid]",5.4 nM
8,"CC(=O)N(Cc1ccc(Cl)cc1)C[C@@H](O)[C@@]12CC[C@]3(C)[C@H](CC[C@@H]4[C@@]5(C)CC[C@H](OC(=O)CC(C)(C)C(=O)O)C(C)(C)[C@@H]5CC[C@]43C)C1=C(C(C)C)C(=O)C2 [Example 33, 4-(((3aR,5aR,5bR,7aR,9S,11aR,11bR,13aS)-3a-((S)-2-(N-(4-Chlorobenzyl)acetamido)-1-hydroxyethyl)-1-isopropyl-5a,5b,8,8,11a-pentamethyl-2-oxo-3,3a,4,5,5a,5b,6,7,7a,8,9,10,11,11a,11b,12,13,13a-octadecahydro-2H-cyclopenta[a]chrysen-9-yl)oxy)-2,2-dimethyl-4-oxobutanoic acid]",5.3 nM
9,"CC(=O)N(Cc1ccc(Cl)cc1)C[C@H](O)[C@@]12CC[C@]3(C)[C@H](CC[C@@H]4[C@@]5(C)CC[C@H](OC(=O)CC(C)(C)C(=O)O)C(C)(C)[C@@H]5CC[C@]43C)C1=C(C(C)C)C(=O)C2 [Example 34, 4-(((3aR,5aR,5bR,7aR,9S,11aR,11bR,13aS)-3a-((R)-2-(N-(4-Chlorobenzyl)acetamido)-1-hydroxyethyl)-1-isopropyl-5a,5b,8,8,11a-pentamethyl-2-oxo-3,3a,4,5,5a,5b,6,7,7a,8,9,10,11,11a,11b,12,13,13a-octadecahydro-2H-cyclopenta[a]chrysen-9-yl)oxy)-2,2-dimethyl-4-oxobutanoic acid]",7.1 nM
10,"CC(=O)N(Cc1ccccc1Cl)C[C@@H](O)[C@@]12CC[C@]3(C)[C@H](CC[C@@H]4[C@@]5(C)CC[C@H](OC(=O)CC(C)(C)C(=O)O)C(C)(C)[C@@H]5CC[C@]43C)C1=C(C(C)C)C(=O)C2 [Example 35, 4-(((3aR,5aR,5bR,7aR,9S,11aR,11bR,13aS)-3a-((S)-2-(N-(2-Chlorobenzyl)acetamido)-1-hydroxyethyl)-1-isopropyl-5a,5b,8,8,11a-pentamethyl-2-oxo-3,3a,4,5,5a,5b,6,7,7a,8,9,10,11,11a,11b,12,13,13a-octadecahydro-2H-cyclopenta[a]chrysen-9-yl)oxy)-2,2-dimethyl-4-oxobutanoic acid]",4.2 nM
11,"CC(=O)O[C@H](CN(CCN(C)C)Cc1ccccc1Cl)[C@@]12CC[C@]3(C)[C@H](CC[C@@H]4[C@@]5(C)CC[C@H](OC(=O)CC(C)(C)C(=O)O)C(C)(C)[C@@H]5CC[C@]43C)C1=C(C(C)C)C(=O)C2 [Example 36, 4-(((3aR,5aR,5bR,7aR,9S,11aR,11bR,13aS)-3a-((S)-1-Acetoxy-2-((2-chlorobenzyl)(2-(dimethylamino)ethyl)amino)ethyl)-1-isopropyl-5a,5b,8,8,11a-pentamethyl-2-oxo-3,3a,4,5,5a,5b,6,7,7a,8,9,10,11,11a,11b,12,13,13a-octadecahydro-2H-cyclopenta[a]chrysen-9-yl)oxy)-2,2-dimethyl-4-oxobutanoic acid]",4 nM

# Source: patent publication US10064873B2, “Compounds and compositions for treating HIV with derivatives of Betulin” (GlaxoSmithKline LLC, priority 2011, dated 2018)
